The values below are quoted from earlier work in article PMC6738130 (OncoTargets and therapy, 2019).

The conditions of data set [1]: driven by mitochondrial inner membrane potential (ΔΨ=140–180 mV).
For data set [2], the system named is tumor. The following applies: 5 nmol/kg SkQ1 per day in drinking water.

For `COC1=C(OC)C(=O)C(CCCCCCCCCC[P+](c2ccccc2)(c2ccccc2)c2ccccc2)=C(C)C1=O` [MitoQ, mitoquinone], the “Accumulation into the mitochondrial matrix” value in data set [1] was “several hundred-fold”.
As to `CC1=C(C)C(=O)C(CCCCCCCCCC[P+](c2ccccc2)(c2ccccc2)c2ccccc2)=CC1=O.[Br-]` [SkQ1], in data set [2], the “Effect on level of ROS and tumor formation” value is “reduced the level of ROS prevented the formation of a tumor”.
